Data as given in ChEMBL document CHEMBL3045235, “Synthesis of aspirin eugenol ester and its biological activity” (Med Chem Res, 2012).

Experiments:
Rattus norvegicus [1] = assay: Antipyretic activity against yeast-induced hyperthermia in Rattus norvegicus (rat) assessed as change in body temperature at 1.5 mmol/kg after 2 hr; format: functional, organism-based
Rattus norvegicus [2] = assay: Antipyretic activity against yeast-induced hyperthermia in Rattus norvegicus (rat) assessed as change in body temperature at 1.5 mmol/kg after 6 hr; format: functional, organism-based
Rattus norvegicus [3] = assay: Antipyretic activity against yeast-induced hyperthermia in Rattus norvegicus (rat) assessed as change in body temperature at 1.5 mmol/kg after 4 hr; format: functional, organism-based
Mus musculus [4] = assay: Anti-inflammatory activity against xylene-induced ear swelling Mus musculus (mouse) model as suppression of ear swelling at 1.11 mmol/kg, ig measured 1 hr after xylene challenge; format: functional; conditions: po
[5] = Toxicity in ig dosed Mus musculus (mouse); format: organism-based; conditions: in vivo, po
Mus musculus [6] = assay: Analgesic activity in Mus musculus (mouse) assessed as pain threshold at 1.1 mmol/kg, ig after 120 min by hot plate test (reference value: 19.06 +/- 4.55 sec); format: functional
Mus musculus [7] = assay: Analgesic activity in Mus musculus (mouse) assessed as pain threshold at 1.1 mmol/kg, ig after 60 min by hot plate test (reference value: 21.28 +/- 3 sec); format: functional
Mus musculus [8] = assay: Analgesic activity in Mus musculus (mouse) assessed as pain threshold at 1.1 mmol/kg, ig after 30 min by hot plate test (reference value: 24.88 +/- 5.28 sec); format: functional
Mus musculus [9] = assay: Analgesic activity in Mus musculus (mouse) assessed as pain threshold at 1.1 mmol/kg, ig after 180 min by hot plate test (reference value: 17.67 +/- 5.78 sec); format: functional
Mus musculus [10] = assay: Toxicity in ig dosed Mus musculus (mouse) assessed as effect on spleen after 7 days; format: organism-based; conditions: in vivo, po, 168 h
Mus musculus [11] = assay: Toxicity in ig dosed Mus musculus (mouse) assessed as effect on spleen measured post autopsy; format: organism-based; conditions: in vivo, po
Mus musculus [12] = assay: Anti-inflammatory activity against xylene-induced ear swelling Mus musculus (mouse) model as suppression of ear swelling at 0.56 mmol/kg, ig measured 1 hr after xylene challenge; format: functional; conditions: po
Mus musculus [13] = assay: Toxicity in ig dosed Mus musculus (mouse) assessed as effect on heart measured post autopsy; format: organism-based; conditions: in vivo, po
Rattus norvegicus [14] = assay: Antipyretic activity against yeast-induced hyperthermia in Rattus norvegicus (rat) assessed as change in body temperature at 2 mmol/kg after 6 hr; format: functional, organism-based
Mus musculus [15] = assay: Analgesic activity in Mus musculus (mouse) assessed as pain threshold at 0.56 mmol/kg, ig after 120 min by hot plate test (reference value: 19.06 +/- 4.55 sec); format: functional
Mus musculus [16] = assay: Toxicity in ig dosed Mus musculus (mouse) assessed as mortality within 24 hr; format: organism-based; conditions: in vivo, po
Mus musculus [17] = assay: Toxicity in ig dosed Mus musculus (mouse) assessed as effect on heart after 7 days; format: organism-based; conditions: in vivo, po, 168 h
Rattus norvegicus [18] = assay: Antipyretic activity against yeast-induced hyperthermia in Rattus norvegicus (rat) assessed as change in body temperature at 2 mmol/kg after 2 hr; format: functional, organism-based
Mus musculus [19] = assay: Toxicity in ig dosed Mus musculus (mouse) assessed as effect on kidney after 7 days; format: organism-based; conditions: in vivo, po, 168 h
Rattus norvegicus [20] = assay: Antipyretic activity against yeast-induced hyperthermia in Rattus norvegicus (rat) assessed as change in body temperature at 1 mmol/kg after 4 hr; format: functional, organism-based
Mus musculus [21] = assay: Toxicity in ig dosed Mus musculus (mouse) assessed as effect on liver measured post autopsy; format: organism-based; conditions: in vivo, po
Mus musculus [22] = assay: Toxicity in ig dosed Mus musculus (mouse) assessed as effect on liver after 7 days; format: organism-based; conditions: in vivo, po, 168 h
Rattus norvegicus [23] = assay: Antipyretic activity against yeast-induced hyperthermia in Rattus norvegicus (rat) assessed as change in body temperature at 1 mmol/kg after 2 hr; format: functional, organism-based
Rattus norvegicus [24] = assay: Antipyretic activity against yeast-induced hyperthermia in Rattus norvegicus (rat) assessed as change in body temperature at 1 mmol/kg after 6 hr; format: functional, organism-based
Mus musculus [25] = assay: Analgesic activity in Mus musculus (mouse) assessed as pain threshold at 0.56 mmol/kg, ig after 180 min by hot plate test (reference value: 17.67 +/- 5.78 sec); format: functional
Mus musculus [26] = assay: Toxicity in ig dosed Mus musculus (mouse) assessed as effect on kidney measured post autopsy; format: organism-based; conditions: in vivo, po
Mus musculus [27] = assay: Analgesic activity in Mus musculus (mouse) assessed as pain threshold at 0.56 mmol/kg, ig after 60 min by hot plate test (reference value: 21.28 +/- 3 sec); format: functional
Mus musculus [28] = assay: Analgesic activity in Mus musculus (mouse) assessed as pain threshold at 0.56 mmol/kg, ig after 30 min by hot plate test (reference value: 24.88 +/- 5.28 sec); format: functional
Rattus norvegicus [29] = assay: Antipyretic activity against yeast-induced hyperthermia in Rattus norvegicus (rat) assessed as change in body temperature at 2 mmol/kg after 4 hr; format: functional, organism-based

Row | Structure (SMILES) | deltaT (Rattus norvegicus [1]) [°C] | deltaT (Rattus norvegicus [2]) [°C] | deltaT (Rattus norvegicus [3]) [°C] | inhibition in vivo at 1110 µmol/kg (Mus musculus [4]) [%] | LD50 [5] [mg/kg] | Time (Mus musculus [6]) [s] | Time (Mus musculus [7]) [s] | Time (Mus musculus [8]) [s] | Time (Mus musculus [9]) [s] | also measured
1 | CC(=O)Oc1ccccc1C(=O)O [ASPIRIN] | -2.19 | -1.78 | -1.8 | 45.2 | 250 | – | – | – | – | –
2 | C=CCc1ccc(O)c(OC)c1 [EUGENOL] | -0.94 | -1.21 | -1.11 | 32.9 | 3000 | 24.86 | 28.01 | 30.76 | 25.5 | –
3 | C=CCc1ccc(OC(=O)c2ccccc2OC(C)=O)c(OC)c1 [ASPIRIN EUGENOL ESTER] | -1.14 | -1.45 | -1.4 | 45.9 | 10900 | 28.74 | 28.8 | 29.5 | 29.69 | Activity (Mus musculus [10]): Non-toxic; Activity (Mus musculus [11]): Non-toxic; inhibition in vivo at 560 µmol/kg (Mus musculus [12]): 44.8%; Activity (Mus musculus [13]): Non-toxic; deltaT (Rattus norvegicus [14]): -2.49 °C; Time (Mus musculus [15]): 26.85 s; Activity (Mus musculus [16]): Toxic; Activity (Mus musculus [17]): Non-toxic; deltaT (Rattus norvegicus [18]): -2.09 °C; Activity (Mus musculus [19]): Non-toxic; deltaT (Rattus norvegicus [20]): -1.29 °C; Activity (Mus musculus [21]): Non-toxic; Activity (Mus musculus [22]): Non-toxic; deltaT (Rattus norvegicus [23]): -1.2 °C; deltaT (Rattus norvegicus [24]): -1.32 °C; Time (Mus musculus [25]): 29.13 s; Activity (Mus musculus [26]): Non-toxic; Time (Mus musculus [27]): 28.81 s; Time (Mus musculus [28]): 24.45 s; deltaT (Rattus norvegicus [29]): -2.46 °C
